Literature values in US10016426B2, “Pharmaceutical compositions for substituted quinazolinones” (Resverlogix Corp., priority 2011, dated 2018).

How the values were obtained:
HDL-C level = details: subjects with low HDL-C; Rubins et al. (1999)
[1] = following oral administration; Gugler et al. (1975)

In the case of `Cc1ccc(C)c(OCCCC(C)(C)C(=O)O)c1` [gemfibrozil], the “increase in the HDL-C level” value (HDL-C level) is given as 6% and the “reduction of the CHD risk” value (HDL-C level) is given as 22%.

For `O=c1c(O)c(-c2ccc(O)c(O)c2)oc2cc(O)cc(O)c12` [quercetin], the intestinal absorption [1] is listed as “less than 1%”.
